Data reported in US20110200646A1, “The TRPVL Antagonists SB-795498 For Treating Rhinitis” (priority 2008, published 2011).
pIC50: −log10 of the molar value.

Columns and labels:
[1] = test system: Capsaicin Induced Currents recorded from Nasally Innervated Guinea-Pig Trigeminal Ganglia Cell Bodies; test: Whole cell patch clamp of capsaicin induced currents in nasally innervated trigeminal ganglia neurons; format: cell-based
Description: Nasal afferent neurons were retrogradely labelled by using DiIC13(3) solution (2% in DMSO, sonicated to ensure solubility) (Dil, Invitrogen), A guinea pig was dosed with atropine (1 mg/kg i.p.) 5 minutes prior to anaesthesia with isoflurane. Once unconscious 25 μl of the Dil solution was placed into the right nostril and the guinea pig allowed to recover. After 24 hours the procedure was repeated and the left nostril dosed. After a period of 2 weeks the guinea pig was killed via CO2 asphyxiation and the trigeminal ganglia rapidly dissected. An area of approximately 3 mm×2 mm which contained neurons that innervated the nose was isolated (J. Allergy Clin. Immunol. 2005, 116, 1282), cut into smaller pieces and incubated in enzyme buffer (8 mg papain in 4 ml L-15) at 37° C. for 40 min. The papain solution was removed and the tissue washed three times with 5-5 media (5-5 Media was prepared by the addition of 5 ml Fetal Bovine Serum, 5 ml Horse Serum, 1 ml 5000 Units Penicillin/5000 […] Streptomycin, 1 ml 30% Glucose and 0.33 ml of 1× stock Insulin Transferrin Sodium Selenite to 90 ml Minimum Essential Media with Earle's salts and Glutamax). The neurons were dissociated by trituration with 3 fire-polished glass Pastuer pipettes of decreasing tip size, then the resulting cell suspension filtered and centrifuged (1000 g for 4 min). The pellet was resuspended in 300 μl of 5-5 media. 25 μl of the cell suspension was plated onto poly-D-lysine and laminin coated 12 mm glass coverslips and placed in an incubator at 37° C. After 2 hours the coverslips were flooded with 5-5 media and used within 48 hours. Conventional whole cell patch clamp techniques were employed under voltage clamp (holding potential of −70 mV) at room temperature. Drug solutions were applied to the cell using a Rapid Solution Changer (Biologic). Cell bodies that had innervated the nose were identified using a fluorescence based microscope. All data was analysed using pClamp version 10.2.0.9 and 10.2.0.10 (Molecular Devices Inc).

[2] = test system: capsaicin provoked nasal tissue response; test: Contralateral nasal tissue volume (MRI) after ipsilateral capsaicin challenge in guinea pig; format: in vivo; details: 1 hour pre-treatment, 0.3 mM capsaicin challenge
Description: (§1) Dunkin Hartley guinea pigs (ca. 180-200 g) were intranasally sensitised into both nostrils twice daily for 5 days with 25 μl of 10 μg ovalbimun plus 10 mg aluminium hydroxide in saline. This was followed up with one week of intranasal challenge in both nostrils with ovalbumin 25 μl of a 5 mg/ml saline solution per nostril (weekends eliminated).
(§2) Six animals per group were studied and a repeat of each study conducted to provide up to 12 animals per group in the final data set. Animals were pretreated with Compound 1 (intranasal administration 25 μl per nostril of a suspension or oral administration 1 ml of a solution in 50% deionised water 5% DMSO and 45% PEG 200). At a set time point the animals were anaethetised with urethane (1.5 g/kg) i.p. and scanned with magnetic resonance imaging (MRI) to obtain baseline nasal images. Each animal was then removed from the scanner and received an ipsilateral nasal challenge of capsaicin (50 μl of a solution 0.3 mM 5% DMSO, 5% Tween 80, 90% Phosphate buffered saline)) or 10% hypertonic saline solution (50 μl) (administered by pipette. The animal was rescanned at 10 minutes post-challenge to measure the contralateral fluid volumes.
(§3) The fluid measurement was made using standard T2 weighted spin echo MRI sequences on a 2 Tesla Bruker Medspec MRI scanner. The raw data was collected using Paravision 3.0.2 (Bruker) software. […]

[3] = test system: hypertonic saline provoked nasal secretion; test: Contralateral nasal fluid secretion (MRI) after ipsilateral hypertonic saline challenge in sensitised guinea pig; format: in vivo; details: topical micronised 1 mg/ml, 1 hour pre-treatment, 10% hypertonic saline challenge; p<0.005
Description: as §1, §2, §3

[4] = test system: capsaicin provoked nasal secretion; test: Contralateral nasal fluid secretion (MRI) after ipsilateral capsaicin challenge in sensitised guinea pig; format: in vivo; details: for reduction of contralateral fluid secretion: oral, non micronised, 1 hour prior to 0.3 mM capsaicin challenge; for inhibition of capsaicin provoked nasal secretion: topical (intranasal) non-micronised
Description: as §1, §2
The fluid measurement was made using standard T2 weighted spin echo MRI sequences on a 2 Tesla Bruker Medspec MRI scanner. The raw data was collected using Paravision 3.0.2 (Bruker) software. Fluid measurements were made using grey level thresholding technique using Mayo Clinic software Analyze 7.0. Statistical analysis was carried out using the Statistica 6.0 software by StatSoft

Row | SMILES | cells tested producing an inward current ([1]; 1 μM capsaicin, small diameter (<30 μm) fluorescent neurons, voltage clamped at −70 mV) [%] | reduction of contralateral tissue swelling compared to vehicle control ([2]; topical micronised 3 mg/ml, p<0.05) [%] | reduction of contralateral tissue swelling compared to vehicle control ([2]; topical micronised 30 mg/ml, p<0.01) [%] | inhibition of the hypertonic saline response (nasal secretion) [3] [%] | pIC50 ([1]; Cavia porcellus, Neuron, 1 μM capsaicin, voltage clamp −70 mV, room temperature, Hill equation fit, n>4, read-out: IC50, inhibition of capsaicin response (inward current)) | inhibition of the capsaicin response (current), concentration dependence ([1]; voltage clamp −70 mV) | reversibility of inhibition on switching from capsaicin and Compound 1 to capsaicin only ([1]; voltage clamp −70 mV) | reduction of contralateral fluid secretion ([4]; 10 mg/kg, p<0.05) | reduction of contralateral fluid secretion ([4]; 30 mg/kg, p<0.001) | inhibition of capsaicin provoked nasal secretion ([4]; 10 mg/ml, 1 hour pre-treatment, p<0.005) [%] | inhibition of capsaicin provoked nasal secretion ([4]; 30 mg/ml, 1 hour pre-treatment) | inhibition of the capsaicin response (nasal secretion) ([4]; topical micronised, 1 hour pre-treatment, all the doses evaluated) | inhibition of contralateral response (nasal secretion) ([4]; topical micronised, capsaicin challenge 12 hours after pre-treatment) [%] | inhibition of contralateral response (nasal secretion) ([4]; topical micronised, capsaicin challenge 24 hours after pre-treatment) [%]
1 | COc1cc(CNC(=O)CCCC/C=C/C(C)C)ccc1O [capsaicin, reference compound] | 56 | – | – | – | – | – | – | – | – | – | – | – | – | –
2 | O=C(Nc1ccccc1Br)N[C@@H]1CCN(c2ccc(C(F)(F)F)cn2)C1 [Compound 1, N-(2-bromophenyl)-N′-[((R)-1-(5-trifluoromethyl-2-pyridyl)pyrrolidin-3-yl)]urea] | – | 56 | 83 | 68 | 7.23 | concentration related inhibition | rapid reversal | ca. 50% | ca. 70% | > 50 | ca. 75% | significant inhibition | 62 | 52
